Data as given in ChEMBL document CHEMBL1201862, “PubChem BioAssay data set” (2004).
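Step 1: Grow cells in 96-well plates. Step 2: Expose to compound for 48 hours at 5 concentrations. Step 3: Interpolate endpoints linearly; if unreached, use highest concentration. Abbreviation: GI50, concentration required for 50% inhibition of growth.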 Calls of active or inactive are those of the source. Cut-off read from the data, not from the text of the source: active = GI50 up to about 1.1 µM and inactive = higher.

How the values were obtained:
Experiment in all cases: inhibition of tumour cell growth, NCI panel, 48 h
OVCAR-3 = system: OVCAR-3
U-251 = system: U-251
KM12 = system: KM12
DMS-114 = system: DMS-114
LOX IMVI = system: LOX IMVI
EKVX = system: EKVX
SK-MEL-2 = system: SK-MEL-2
HCT-116 = system: HCT-116
Malme-3M = system: Malme-3M
IGROV-1 = system: IGROV-1
SF-268 = system: SF-268
MOLT-4 = system: MOLT-4
HOP-62 = system: HOP-62
XF498 = system: XF498
M19-MEL = system: M19-MEL
COLO 205 = system: COLO 205
NCI-H23 = system: NCI-H23
HT-29 = system: HT-29
M14 = system: M14
CCRF-CEM = system: CCRF-CEM

Measured: GI50

CC(C)OP(=O)(OC(C)C)C1=NN(c2ccc([N+](=O)[O-])cc2)C(P(=O)(OC(C)C)OC(C)C)=NN1c1ccc([N+](=O)[O-])cc1
inactive: OVCAR-3 > 100 µM | U-251 42.7 µM | KM12 67.3 µM | DMS-114 12.8 µM | LOX IMVI > 100 µM | EKVX 8.91 µM | SK-MEL-2 > 100 µM | HCT-116 7.6 µM | Malme-3M 72.1 µM | IGROV-1 > 100 µM | SF-268 > 100 µM | MOLT-4 5.19 µM | HOP-62 > 100 µM | XF498 7.98 µM | M19-MEL > 100 µM | COLO 205 > 100 µM | NCI-H23 > 100 µM | HT-29 44 µM | M14 > 100 µM | CCRF-CEM 91.4 µM

Cc1cn([C@@H]2C[C@H](CO)[C@@H](O)C2)c(=O)[nH]c1=O
inactive: OVCAR-3 > 100 µM | U-251 > 100 µM | KM12 > 100 µM | DMS-114 > 100 µM | LOX IMVI > 100 µM | EKVX > 100 µM | SK-MEL-2 > 100 µM | HCT-116 > 100 µM | Malme-3M > 100 µM | IGROV-1 > 100 µM | SF-268 > 100 µM | MOLT-4 > 100 µM | HOP-62 > 100 µM | XF498 > 100 µM | M19-MEL > 100 µM | COLO 205 > 100 µM | NCI-H23 > 100 µM | HT-29 > 100 µM | M14 > 100 µM | CCRF-CEM > 100 µM
